What all share (type): physicochemical
A short description of data set [1]: Slurrying of Form A in solvents (Examples 26 to 38). As to conditions: slurrying in few solvents (Examples 26 to 38), 27° C., 17-24 hours. The procedure: Suvorexant Form-A (500 mg) and methanol (20 ml) were introduced in 100 ml round bottom flask. The heterogeneous mixture so obtained was stirred at 27° C. for 17 hours and the solid substance was then filtered under vacuum. The product was dried at 60° C. in air tray drier to obtain Form B.
The process of example 26 was repeated wherein methanol was replaced by following solvents to obtain Form B: […]

A short description of data set [2]: Slurry of Form B in water at about room temperature, solid analysed with XRD. The procedure: (§1) All PXRD data reported herein are obtained using a Bruker AXS D8 Advance Powder X-ray Diffractometer or a PANalytical X-ray Diffractometer, using copper Kα radiation wavelength 1.5418 Å.
Suvorexant Form B (500 mg) and water (10 ml) were introduced in round bottom flask. The heterogeneous mixture so obtained was slurried with stirring at about room temperature for about 1 hour. The heterogeneous mixture was divided in to two parts. The first part was filtered under vacuum. The filtered solid was analyzed after 2 hour and 4 hours. The solid obtained after 2 hour and 4 hours were Form B up on analysis with XRD. The second part was stirred over night at room temperature and then filtered under vacuum. The solid obtained from second part was Form B up on analysis with XRD.

Data set [3] in a line: Slurry of Form B in water at about 80° C., solid analysed with XRD. As to conditions: water slurry at about 80° C. for about 1 hour, filtered at 80° C. Here is the method:
as §1
Suvorexant Form B (500 mg) and water (10 ml) were introduced in round bottom flask. The heterogeneous mixture so obtained was slurried with stirring at about 80° C. for about 1 hour and the solid substance was then filtered under vacuum at 80° C. The filtered solid was analyzed after 1 hour and 4 hours. The solid obtained after 1 hour and 4 hours were Form B up on analysis with XRD.

Structures are written as SMILES.

`Cc1ccc(-n2nccn2)c(C(=O)N2CCN(c3nc4cc(Cl)ccc4o3)CC[C@H]2C)c1` [Form A, 5-chloro-2-{(5R)-5-methyl-4-[5-methyl-2-(2H-1,2,3-triazol-2-yl)benzoyl]-1,4-diazepan-1 yl}-1,3-benzoxazole]: the “polymorphic form conversion up on slurrying” value in data set [1] is “converted in to Form B”.

With `Cc1ccc(-n2nccn2)c(C(=O)N2CCN(c3nc4cc(Cl)ccc4o3)CC[C@H]2C)c1` [Suvorexant Form B, 5-chloro-2-{(5R)-5-methyl-4-[5-methyl-2-(2H-1,2,3-triazol-2-yl)benzoyl]-1,4-diazepan-1 yl}-1,3-benzoxazole], the “polymorphic form of the solid up on analysis with XRD” value in data set [2] (water slurry at about room temperature for about 1 hour, first part filtered, filtered solid analyzed after 2 hour) was “Form B”; in data set [2] (water slurry at about room temperature for about 1 hour, first part filtered, filtered solid analyzed after 4 hours) it was “Form B”; in data set [2] (water slurry, second part stirred over night at room temperature, then filtered), “Form B”; in data set [3] (filtered solid analyzed after 1 hour), “Form B”; in data set [3] (filtered solid analyzed after 4 hours), “Form B”.

The values above are taken from US20160272627A1, “POLYMORPHIC FORMS OF SUVOROXANT” (priority 2012, published 2016).
